Results taken from PubChem BioAssay (NCI).
“And” between values parts separate entries of the source, which are not always exact repeats. Identical values can stand only once.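 Assay format: 96-well plates, 48-hour exposure. GI50: concentration for 50% inhibition of growth. The concentration for full growth arrest is given as TGI.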 Where a SMILES comes first, the peptide text is derived from it. Bridges are numbered along the chain shown (N, C = ends). [ ]: non-standard residue; d: D form. ξ: configuration not given here. ξThr(3R) = C[C@@H](O)C(N)C(=O)O; S5 = C=CCCC[C@](C)(N)C(=O)O

System: MDA-MB-468 breast
Assay: NCI tumour cell line growth inhibition, 48 h

| SMILES | GI50 | TGI |
| --- | --- | --- |
| CC[C@]1(O)CC2CN(CCc3c([nH]c4ccccc34)[C@@](C(=O)OC)(c3cc4c(cc3OC)N(C=O)[C@H]3[C@@](O)(C(=O)OC)[C@H](OC(C)=O)[C@]5(CC)C=CCN6CC[C@]43[C@@H]65)C2)C1 (stereo not given in full) | < 0.005 µM | > 28.5 µM |
| Nc1nnnc2nc[nH]c12 | 0.369 µM |  |
| COc1ccc(-c2[nH]nc(N)c2-c2cc(OC)c3c(c2)OCO3)cc1 | 1.86 µM | 6.28 µM |
| COc1ccc(C(=O)O[C@H]2[C@H](O[C@H]3[C@@H](O)COC(O[C@H]4C[C@H]5[C@@H]6CC=C7C[C@@H](O)CC[C@]7(C)[C@H]6CC[C@]5(C)[C@H]4[C@H](C)C(=O)CCC(C)C)[C@@H]3OC(C)=O)OC[C@@H](O)[C@@H]2O)c(C)c1 (stereo not given in full) | 0.0104 µM | 4.89 µM |
| O=C1c2ccccc2C(=O)c2c1ccc1c(=O)n(-c3ccccc3C(F)(F)F)nnc21 | 1.43 µM | 3.71 µM |
| Cc1ccc(NC(=O)Nc2c(Cl)cccc2Cl)cn1 | 3.12 µM | 12.5 µM |
| CC(C)(C)NC(=O)[C@H]1CC[C@H]2[C@@H]3CC[C@H]4NC(=O)C=C[C@]4(C)[C@H]3CC[C@]12C | 63 µM and > 100 µM | > 100 µM |
| CCOc1ccc2c(c1)CN(Cc1ccc(Cl)cc1)CO2 | 16.3 µM | 34.9 µM |
| O=C(Nc1cccc(-n2cc(-c3ccncc3)c(-c3ccc(O)c(Cl)c3)n2)c1)c1cc(C(F)(F)F)cc(C(F)(F)F)c1 | 3.8 µM | 46 µM |
| CCOC(=O)/C(C#N)=C1\SS/C(=C(/C#N)C(=O)OCC)S1 | 15.6 µM | 33 µM |
| Cc1ccc(-c2nc(N3CCNCC3)c3oc(-c4ccccc4)nc3n2)cc1 | 1.81 µM | 3.8 µM |
| COc1ccccc1/C=C/C1=C(C)CCC(c2ccccc2OC)C1C (stereo not given) | 0.118 µM | > 100 µM |
| COc1ccc(-c2nn(-c3ccc(NC(=O)c4cc(Cl)cc(Cl)c4)cc3)cc2-c2ccncc2)cc1Cl | 7.06 µM | > 100 µM |
| Cc1nc(-c2cnc(NC(C)C)n(C)c2=O)ccc1Oc1ccnc(-c2cnn(C)c2)c1 | 3.01 µM | 73.9 µM |
| Clc1ccc2ncc(-c3cccc(NC4CNC4)n3)n2c1 | 4.86 µM | 20.5 µM |
| CCN(CC)c1ccc2nc3c4ccccc4c(=O)cc-3n(-c3ccccc3)c2c1 | 0.333 µM | 1.98 µM |
| COc1ccc2nc3cc([N+](=O)[O-])ccc3c(NNc3ccccc3)c2c1 | 0.616 µM | 5.37 µM |
| C=C1C(=O)O[C@H]2[C@H]1CC/C(Cn1cc(-c3cccc(Cl)c3)nn1)=C\CC[C@@]1(C)O[C@@H]21 | 0.569 µM | 2.14 µM |
| CCN(CC)CCC(CNc1ccnc2cc(Cl)ccc12)c1ccccc1 (stereo not given) | 2.16 µM | 5.69 µM |
| NC1=NC(=O)/C(=C/c2ccc3ncccc3c2)S1 | > 17.1 µM | > 25 µM |
| NC(Cc1c[nH]c2ccc(F)cc12)C(=O)O (stereo not given) | 649 µM | > 2500 µM |
| O=c1c2ccccc2nc(-c2ccccc2Cl)n1-c1nnc(C(F)(F)F)s1 | 2.29 µM | 7.81 µM |

| SMILES | GI50 | TGI |
| --- | --- | --- |
| CN1CCN(c2ccc(NC(=O)c3cncnc3Nc3ccc(OCc4cccc(F)c4)c(Cl)c3)cc2)CC1 | 1.71 µM | 8.75 µM |
| O=C(Cc1csc2nc(-c3ccc(Cl)cc3)cn12)N/N=C/c1ccccc1O | 1.57 µM | 4.92 µM |
| O=C(Nc1ccc(-n2ccc3c(NC(=O)c4ccccc4)nccc32)cc1)Nc1cccc(C(F)(F)F)c1 | 2.47 µM | 10.5 µM |
| NC(=O)CC1(O)C=C(Br)C(=O)C(Br)=C1 | 1.75 µM | 7.22 µM |
| Cc1ccc(/C=C/c2c(C(=O)/C=C/c3ccc(Cl)cc3)c(C)nc3ccccc23)cc1 | 2.01 µM | 3.82 µM |
| CCOC(=O)c1c(NC(=O)c2ccccc2)sc2c3c(ccc12)OCN(C)C3 | 1.52 µM | 3.14 µM |
| OCc1ccc(N2CCc3cc(F)ccc3C2)cc1Cl | 0.0101 µM | < 0.0182 µM |
| c1ccc(-c2n(Cc3ccc4ccccc4c3)cc[n+]2Cc2ccc3ccccc3c2)cc1 | 0.245 µM | 1.18 µM |
| C[C@@H](NC(=O)c1ncnc(N)c1Cl)c1ncc(C(=O)Nc2cc(C(F)(F)F)c(Cl)cn2)s1 | 19.1 µM | 52.5 µM |
| COc1cccc(C2=C(c3cn(C)c4cc(F)ccc34)C(=O)NC2=O)c1 | 13.5 µM | > 25 µM |
| Nc1cc(C(F)(F)F)c(-c2cc(N3CCOCC3)nc(N3CCOCC3)n2)cn1 | 0.329 µM and 0.216 µM | 2.5 µM and 1.41 µM |
| COc1ccc(Cl)cc1Nc1nc(C(F)(F)F)ccc1C(=O)N/N=C/c1cccnc1 | 0.797 µM | 4.66 µM |
| CC(c1ccccc1)[C@@H](C(=O)Nc1ccc(I)cc1F)N1C(=O)N[C@H](c2ccc(OC[C@H](O)CO)cc2)C1=O (stereo not given in full) | 11.5 µM | > 25 µM |
| CC(=O)N[C@H](C(=O)N[C@@H](CCCNC(=N)N)C(=O)N[C@@H](CCCCN)C(=O)N[C@@H](CCCNC(=N)N)C(=O)NC(C(=O)N[C@@H](CC(C)C)C(=O)N[C@@H](CCCNC(=N)N)C(=O)N[C@@]1(C)CCC/C=C\CCC[C@@](C)(C(=O)N[C@@H](CCCNC(=N)N)C(=O)N[C@@H](CCC(=O)O)C(=O)N[C@@H](CC(C)C)C(=O)N[C@H](C(=O)N[C@@H](CCC(=O)O)C(N)=O)C(C)C)NC(=O)[C@H](CCC(N)=O)NC(=O)[C@H](CC(C)C)NC(=O)[C@H](CC(C)C)NC1=O)[C@@H](C)O)C(C)C (stereo partly drawn) (Ac-VRKR[ξThr(3R)]LR[S5]LLQ[S5]RELVE-NH2; staple (Z) 8-12) | 7.65 µM | 18.4 µM |
| Cc1ccc(Cl)cc1NC(=O)c1cc2ccccc2cc1O | 1.31 µM | 7.25 µM |
| Clc1ccc(Nc2nc(Nc3ccccc3)nc(Nc3ccc(-c4cc(-c5ccc(Cl)cc5)on4)cc3)n2)cc1 | 26 µM | > 100 µM |
| COc1ccc(Cn2cc3c(c2)-c2oncc2CC3)cc1OC | 0.0854 µM | 0.254 µM |
| COc1cc(/C=C/C(=O)/C=C/c2cc3ccc(Cl)cc3n(Cc3ccccc3)c2=O)ccc1O | 1.65 µM | 5.2 µM |
| O=C1c2cccnc2C(=O)c2c1c(C(=O)NCCn1ccnc1)c1ccccn21 | 2.34 µM | 5.61 µM |
| CCCCCCCCCCCCCCCCCCOc1ccccc1CC(=O)OCC[N+](CC)(CC)CC | 0.904 µM | 2.15 µM |
| COc1cc(/C=C/C(=O)N2CCC=CC2=O)cc(OC)c1OC | 1.73 µM | 4.7 µM |
